In US9926282B2, “Phthalazinones and isoquinolinones as rock inhibitors” (BRISTOL-MYERS SQUIBB COMPANY, priority 2013, dated 2018):

Legend:
[1] = target: ROCK2 (Homo sapiens (Human), UniProt O75116); assay: ROCK assay (LABCHIP peptide phosphorylation), ROCK2; assay type: biochemical; conditions: 5 μM ATP, 1.5 μM peptide substrate
[2] = target: ROCK1 (Homo sapiens (Human), UniProt Q13464); assay: ROCK assay (LABCHIP peptide phosphorylation), ROCK1; assay type: biochemical; conditions: 5 μM ATP, 1.5 μM peptide substrate; read-out: ROCK1 IC50
Sequence of ROCK1 (Q13464 whole entry, species assumed): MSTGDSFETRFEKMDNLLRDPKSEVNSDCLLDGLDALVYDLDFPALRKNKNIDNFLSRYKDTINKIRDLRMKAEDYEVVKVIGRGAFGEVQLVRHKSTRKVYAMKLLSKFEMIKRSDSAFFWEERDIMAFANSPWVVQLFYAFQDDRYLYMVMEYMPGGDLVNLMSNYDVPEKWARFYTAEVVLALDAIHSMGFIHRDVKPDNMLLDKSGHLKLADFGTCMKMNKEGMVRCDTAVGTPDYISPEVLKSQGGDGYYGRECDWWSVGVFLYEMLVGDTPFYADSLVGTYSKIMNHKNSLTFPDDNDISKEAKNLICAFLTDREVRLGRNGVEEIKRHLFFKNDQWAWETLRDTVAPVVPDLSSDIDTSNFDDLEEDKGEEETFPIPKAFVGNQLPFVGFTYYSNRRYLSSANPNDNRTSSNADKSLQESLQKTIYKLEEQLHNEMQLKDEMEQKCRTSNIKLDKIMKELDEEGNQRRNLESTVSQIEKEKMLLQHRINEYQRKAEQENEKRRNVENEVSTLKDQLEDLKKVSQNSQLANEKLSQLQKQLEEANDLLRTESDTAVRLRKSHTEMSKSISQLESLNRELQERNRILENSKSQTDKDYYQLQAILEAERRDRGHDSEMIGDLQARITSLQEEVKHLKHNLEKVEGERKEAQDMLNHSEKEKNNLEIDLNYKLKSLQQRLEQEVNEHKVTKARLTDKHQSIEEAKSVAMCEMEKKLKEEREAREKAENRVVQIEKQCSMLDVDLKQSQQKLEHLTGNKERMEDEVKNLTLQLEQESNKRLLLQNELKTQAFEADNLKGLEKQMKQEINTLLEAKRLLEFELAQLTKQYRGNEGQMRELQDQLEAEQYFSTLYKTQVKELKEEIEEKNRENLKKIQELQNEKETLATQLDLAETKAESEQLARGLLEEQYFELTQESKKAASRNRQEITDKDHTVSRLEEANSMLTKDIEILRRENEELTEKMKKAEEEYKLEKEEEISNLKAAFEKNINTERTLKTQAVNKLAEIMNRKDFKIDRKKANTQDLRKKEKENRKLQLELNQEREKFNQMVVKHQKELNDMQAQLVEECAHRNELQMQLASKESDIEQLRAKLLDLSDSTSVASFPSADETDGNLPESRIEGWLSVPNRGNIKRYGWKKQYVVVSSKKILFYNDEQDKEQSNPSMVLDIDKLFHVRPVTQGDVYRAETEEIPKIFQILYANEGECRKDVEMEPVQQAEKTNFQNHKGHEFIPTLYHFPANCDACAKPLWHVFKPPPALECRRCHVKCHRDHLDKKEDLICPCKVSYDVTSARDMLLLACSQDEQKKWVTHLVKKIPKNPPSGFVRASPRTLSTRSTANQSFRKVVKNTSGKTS

Sequence of ROCK2 (O75116 whole entry, species assumed): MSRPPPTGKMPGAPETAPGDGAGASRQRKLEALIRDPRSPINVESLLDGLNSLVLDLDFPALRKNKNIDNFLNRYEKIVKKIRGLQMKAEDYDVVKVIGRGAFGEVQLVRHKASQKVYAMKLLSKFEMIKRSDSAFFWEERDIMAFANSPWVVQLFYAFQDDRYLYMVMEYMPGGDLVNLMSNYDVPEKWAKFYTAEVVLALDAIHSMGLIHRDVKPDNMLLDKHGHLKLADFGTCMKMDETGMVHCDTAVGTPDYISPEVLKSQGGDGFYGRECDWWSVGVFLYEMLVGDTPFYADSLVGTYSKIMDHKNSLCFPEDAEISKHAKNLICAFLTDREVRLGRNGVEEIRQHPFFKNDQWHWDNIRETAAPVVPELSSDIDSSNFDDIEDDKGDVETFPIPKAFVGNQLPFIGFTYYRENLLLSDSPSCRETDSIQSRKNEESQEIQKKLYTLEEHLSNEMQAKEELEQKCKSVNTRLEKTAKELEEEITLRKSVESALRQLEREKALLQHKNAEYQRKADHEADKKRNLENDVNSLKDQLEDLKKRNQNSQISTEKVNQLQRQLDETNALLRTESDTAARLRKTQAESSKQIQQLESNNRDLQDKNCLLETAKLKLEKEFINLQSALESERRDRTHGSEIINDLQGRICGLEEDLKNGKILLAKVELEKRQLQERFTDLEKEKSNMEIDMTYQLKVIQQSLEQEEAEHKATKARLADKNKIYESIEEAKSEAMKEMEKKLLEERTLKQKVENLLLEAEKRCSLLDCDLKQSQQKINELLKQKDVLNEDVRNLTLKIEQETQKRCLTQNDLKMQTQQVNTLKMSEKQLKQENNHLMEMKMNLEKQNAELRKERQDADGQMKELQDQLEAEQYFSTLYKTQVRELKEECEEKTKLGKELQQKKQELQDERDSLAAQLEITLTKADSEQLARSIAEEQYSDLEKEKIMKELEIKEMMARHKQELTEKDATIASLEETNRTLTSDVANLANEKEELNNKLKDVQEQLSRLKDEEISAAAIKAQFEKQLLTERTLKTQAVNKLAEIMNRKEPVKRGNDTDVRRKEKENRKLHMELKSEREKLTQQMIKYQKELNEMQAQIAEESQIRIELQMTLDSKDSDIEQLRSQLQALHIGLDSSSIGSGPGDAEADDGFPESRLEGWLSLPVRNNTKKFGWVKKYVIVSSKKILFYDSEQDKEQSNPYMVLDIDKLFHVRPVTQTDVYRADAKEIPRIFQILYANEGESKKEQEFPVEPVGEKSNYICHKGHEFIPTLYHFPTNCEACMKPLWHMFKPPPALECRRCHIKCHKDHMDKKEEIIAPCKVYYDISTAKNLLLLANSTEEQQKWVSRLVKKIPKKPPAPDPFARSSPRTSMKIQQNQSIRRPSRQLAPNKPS

Row | IC50 [1] [nM] | IC50 [2] [nM] | Molecule
1 | 0.1 to 100 | 0.1 to 100 | CCOc1ccc2c(c1)cc(C(=O)Nc1ccc(-c3n[nH]c(=O)c4ccccc34)cc1)n2C [Example 130, 5-ethoxy-1-methyl-N-[4-(4-oxo-3,4-dihydrophthalazin-1-yl)phenyl]-1H-indole-2-carboxamide]
2 | 0.1 to 100 | 1000 to 50000 | O=c1[nH]nc(-c2ccc(Nc3ncc(-c4ccccc4)s3)cc2)c2ccccc12 [Example 88, 4-(4-((5-Phenylthiazol-2-yl)amino)phenyl)phthalazin-1(2H)-one]
3 | 0.1 to 100 | 0.1 to 100 | N-[4-(4-oxo-3,4- dihydrophthalazin-1- yl)phenyl]pyrazolo[1,5- a]pyrimidine-2- carboxamide [Example 102]
4 | 0.1 to 100 | 0.1 to 100 | Cn1nc(C(=O)Nc2ccc(-c3n[nH]c(=O)c4ccccc34)cc2)cc1OC(F)F [Example 403, 5-(Difluoromethoxy)-1-methyl-N-(4-(4-oxo-3,4-dihydrophthalazin-1-yl)phenyl)-1H-pyrazole-3-carboxamide]
5 | 0.1 to 100 | 101 to 1000 | O=C(c1ccc2c(c1)CCN2C(=O)Cc1ccc(-c2n[nH]c(=O)c3ccccc23)cc1)N1CCC(O)CC1 [Example 294, 4-(4-{2-[5-(4-hydroxypiperidine-1-carbonyl)-2,3-dihydro-1H-indol-1-yl]-2-oxoethyl}phenyl)-1,2-dihydrophthalazin-1-one]
6 | 0.1 to 100 | 1000 to 50000 | CC(C)(O)Cn1cc(C(=O)Nc2ccc(-c3n[nH]c(=O)c4ccccc34)cc2)cn1 [Example 377, 1-(2-Hydroxy-2-methylpropyl)-N-(4-(4-oxo-3,4-dihydrophthalazin-1-yl)phenyl)-1H-pyrazole-4-carboxamide]
7 | 0.1 to 100 | 1000 to 50000 | COc1ccc2c(=O)[nH]cc(-c3ccc(OC(=O)N4Cc5ccccc5C4)cc3)c2c1 [Example 269, 4-(6-Methoxy-1-oxo-1,2-dihydroisoquinolin-4-yl)phenyl isoindoline-2-carboxylate]
8 | 0.1 to 100 | 0.1 to 100 | O=C(Cc1ccc(-c2n[nH]c(=O)c3ccccc23)cc1)N1CCc2ccc(O[C@H]3CCOC3)cc21 [Example 275, 4-[4-(2-oxo-2-(6-[(3S)-oxolan-3-yloxy]-2,3-dihydro-1H-indol-1-yl}ethyl)phenyl]-1,2-dihydrophthalazin-1-one]
9 | 0.1 to 100 | 0.1 to 100 | CC(C)(O)COc1ccc2c(c1)N(C(=O)Cc1ccc(-c3c[nH]c(=O)c4ccccc34)cc1)CC2 [Example 288, 4-(4-(2-(6-(2-Hydroxy-2-methylpropoxy)indolin-1-yl)-2-oxoethyl)phenyl)isoquinolin-1(2H)-one]
10 | 101 to 1000 | 101 to 1000 | Cn1ccnc1C(=O)Nc1ccc(-c2n[nH]c(=O)c3ccccc23)cc1 [Example 52, 1-methyl-N-[4-(4-oxo-3,4-dihydrophthalazin-1-yl)phenyl]-1H-imidazole-2-carboxamide]
11 | 0.1 to 100 | 0.1 to 100 | Cn1cc(C(=O)Nc2ccc(-c3n[nH]c(=O)c4ccccc34)cc2)c2ccccc21 [Example 122, 1-methyl-N-[4-(4-oxo-3,4-dihydrophthalazin-1-yl)phenyl]-1H-indole-3-carboxamide]
12 | 0.1 to 100 | 0.1 to 100 | CCCc1cc(C(=O)Nc2ccc(-c3n[nH]c(=O)c4ccccc34)cc2)nn1C [Example 229, 1-methyl-N-[4-(4-oxo-3,4-dihydrophthalazin-1-yl)phenyl]-5-propyl-1H-pyrazole-3-carboxamide]
13 | 0.1 to 100 | 101 to 1000 | O=C(Nc1ccc(-c2n[nH]c(=O)c3ccccc23)cc1)c1cnn(C2CCOCC2)c1 [Example 384, N-(4-(4-Oxo-3,4-dihydrophthalazin-1-yl)phenyl)-1-(tetrahydro-2H-pyran-4-yl)-1H-pyrazole-4-carboxamide]
14 | 1000 to 50000 | 1000 to 50000 | CC(=O)N1CCC(C(=O)Nc2ccc(-c3n[nH]c(=O)c4ccccc34)cc2)CC1 [Example 55, 1-acetyl-N-[4-(4-oxo-3,4-dihydrophthalazin-1-yl)phenyl]piperidine-4-carboxamide]
15 | 0.1 to 100 | 101 to 1000 | Cn1c(C(=O)Nc2ccc(-c3c[nH]c(=O)c4ccccc34)cc2)cc2ccccc21 [Example 248, 1-Methyl-N-(4-(1-oxo-1,2-dihydroisoquinolin-4-yl)phenyl)-1H-indole-2-carboxamide]
16 | 1000 to 50000 | 1000 to 50000 | COCCN1CCC(C(=O)Nc2ccc(-c3n[nH]c(=O)c4ccccc34)cc2)C1 (centres unmarked) [Example 57, 1-(2-methoxyethyl)-N-[4-(4-oxo-3,4-dihydrophthalazin-1-yl)phenyl]pyrrolidine-3-carboxamide]
17 | 0.1 to 100 | 101 to 1000 | Cn1ccc(C(=O)Nc2ccc(-c3n[nH]c(=O)c4ccccc34)cc2)n1 [Example 227, 1-methyl-N-[4-(4-oxo-3,4-dihydrophthalazin-1-yl)phenyl]-1H-pyrazole-3-carboxamide]
18 | 0.1 to 100 | 0.1 to 100 | O=C(Nc1ccc(-c2c[nH]c(=O)c3ccccc23)cc1)c1onc2ccccc12 [Example 247, N-(4-(1-Oxo-1,2-dihydroisoquinolin-4-yl)phenyl)benzo[c]isoxazole-3-carboxamide]
19 | 0.1 to 100 | 101 to 1000 | O=C(Nc1ccc(-c2n[nH]c(=O)c3ccccc23)cc1)c1ccc(N2CCOCC2)cc1 [Example 63, 4-(morpholin-4-yl)-N-[4-(4-oxo-3,4-dihydrophthalazin-1-yl)phenyl]benzamide]
20 | 0.1 to 100 | 0.1 to 100 | O=C(Nc1ccc(-c2n[nH]c(=O)c3ccccc23)cc1)c1ccc(-n2ccnc2)cc1 [Example 65, 4-(1H-imidazol-1-yl)-N-[4-(4-oxo-3,4-dihydrophthalazin-1-yl)phenyl]benzamide]
21 | 0.1 to 100 | 101 to 1000 | Cc1oc2ccc(OCc3ccccc3)cc2c1C(=O)Nc1ccc(-c2n[nH]c(=O)c3ccccc23)cc1 [Example 105, 5-(benzyloxy)-2-methyl-N-[4-(4-oxo-3,4-dihydrophthalazin-1-yl)phenyl]-1-benzofuran-3-carboxamide]
22 | 0.1 to 100 | 0.1 to 100 | Cn1nc2c(c1C(=O)Nc1ccc(-c3n[nH]c(=O)c4ccccc34)cc1)CCCC2 [Example 116, 2-methyl-N-[4-(4-oxo-3,4-dihydrophthalazin-1-yl)phenyl]-4,5,6,7-tetrahydro-2H-indazole-3-carboxamide]

Row | Molecule | IC50 [1] [nM] | IC50 [2] [nM]
23 | CC(=O)N1CCC(Cn2nc(C(=O)Nc3ccc(-c4n[nH]c(=O)c5ccccc45)cc3)c3ccccc32)CC1 [Example 343, 1-((1-Acetylpiperidin-4-yl)methyl)-N-(4-(4-oxo-3,4-dihydrophthalazin-1-yl)phenyl)-1H-indazole-3-carboxamide] | 0.1 to 100 | 0.1 to 100
24 | CN1CC(Cn2nc(C(=O)Nc3ccc(-c4n[nH]c(=O)c5ccccc45)cc3)c3ccccc32)C1 [Example 340, 1-((1-Methylazetidin-3-yl)methyl)-N-(4-(4-oxo-3,4-dihydrophthalazin-1-yl)phenyl)-1H-indazole-3-carboxamide] | 0.1 to 100 | 0.1 to 100
25 | CC(C)(O)Cn1cc(C(=O)Nc2ccc(-c3n[nH]c(=O)c4ccccc34)cc2)c2ccccc21 [Example 138, 1-(2-hydroxy-2-methylpropyl)-N-[4-(4-oxo-3,4-dihydrophthalazin-1-yl)phenyl]-1H-indole-3-carboxamide] | 0.1 to 100 | 0.1 to 100
26 | Cc1cc(NC(=O)N2CCc3ccccc32)ccc1-c1n[nH]c(=O)c2ccccc12 [Example 324, N-(3-Methyl-4-(4-oxo-3,4-dihydrophthalazin-1-yl)phenyl)indoline-1-carboxamide] | 0.1 to 100 | 0.1 to 100
27 | CC(O)Cn1nc(C(=O)Nc2ccc(-c3n[nH]c(=O)c4ccccc34)cc2)c2ccccc21 (centres unmarked) [Example 153, 1-(2-hydroxypropyl)-N-[4-(4-oxo-3,4-dihydrophthalazin-1-yl)phenyl]-1H-indazole-3-carboxamide] | 0.1 to 100 | 0.1 to 100
28 | O=C(Cc1ccc(-c2n[nH]c(=O)c3ccccc23)cc1)N1CCN(Cc2ccccc2)CC1 [Example 12, 4-{4-[2-(4-benzylpiperazin-1-yl)-2-oxoethyl]phenyl}-1,2-dihydrophthalazin-1-one] | 1000 to 50000 | 1000 to 50000
29 | Cc1cc(NC(=O)c2cn(CC(C)(C)O)c3ccccc23)ccc1-c1n[nH]c(=O)c2ccccc12 [Example 302, 1-(2-hydroxy-2-methylpropyl)-N-[3-methyl-4-(4-oxo-3,4-dihydrophthalazin-1-yl)phenyl]-1H-indole-3-carboxamide] | 0.1 to 100 | 0.1 to 100
30 | Cc1cc(NC(=O)c2nn(CC3CCOCC3)c3ccccc23)ccc1-c1n[nH]c(=O)c2ccccc12 [Example 313, N-[3-methyl-4-(4-oxo-3,4-dihydrophthalazin-1-yl)phenyl]-1-(oxan-4-ylmethyl)-1H-indazole-3-carboxamide] | 0.1 to 100 | 0.1 to 100
31 | O=C(Nc1ccc(-c2n[nH]c(=O)c3ccccc23)c(CO)c1)c1nn(CCO)c2ccccc12 [Example 359, 1-(2-Hydroxyethyl)-N-(3-(hydroxymethyl)-4-(4-oxo-3,4-dihydrophthalazin-1-yl)phenyl)-1H-indazole-3-carboxamide] | 0.1 to 100 | 1000 to 50000
32 | CC(C)n1nc(C(=O)Nc2ccc(-c3n[nH]c(=O)c4ccccc34)cc2)c2ccccc21 [Example 132, N-[4-(4-oxo-3,4-dihydrophthalazin-1-yl)phenyl]-1-(propan-2-yl)-1H-indazole-3-carboxamide] | 0.1 to 100 | 0.1 to 100
33 | COC(=O)CCn1nc(C(=O)Nc2ccc(-c3n[nH]c(=O)c4ccccc34)cc2)c2ccccc21 [Example 332, Methyl 3-(3-((4-(4-oxo-3,4-dihydrophthalazin-1-yl)phenyl)carbamoyl)-1H-indazol-1-yl)propanoate] | 0.1 to 100 | 0.1 to 100
34 | CCOc1cc(NC(=O)c2nn(CC(C)(C)O)c3ccccc23)ccc1-c1n[nH]c(=O)c2ccccc12 [Example 346, N-(3-Ethoxy-4-(4-oxo-3,4-dihydrophthalazin-1-yl)phenyl)-1-(2-hydroxy-2-methylpropyl)-1H-indazole-3-carboxamide] | 101 to 1000 | 1000 to 50000
